This is an account of results in US11254671B2, “Chemical compounds” (GLAXOSMITHKLINE INTELLECTUAL PROPERTY DEVELOPMENT LIMITED, priority 2017, dated 2022).

Values joined by “and” are separate entries in the source; they are usually repeats but may differ in a detail not shown here. Equal entries are not always repeated.

The target of this assay is T1, mTOR (Homo sapiens, UniProt P42345).
T1 construct: capturing of endogenously expressed target proteins from cell extracts by a bead-immobilized capturing ligand; endogenous in cells; host or cells: HuT-78 cells (ECACC 88041901), cell lysate
Nature of the assay: mTOR kinobeads assay (competition-binding assay). To be noted: HuT-78 cell extract, endogenously expressed mTOR, bead-immobilized capturing ligand; mean of multiple experiments; read-out: mean pIC50, affinity for mTOR (converted). Put shortly: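 Competition binding of endogenous mTOR from HuT-78 cell lysate (250 μg, 5 mg/ml) to immobilized Compound A/C beads, 2 h at 4 °C, pH 7.5, 2% DMSO, 11-point series. Bead-bound mTOR eluted, dot-blotted, detected by anti-mTOR infrared immunofluorescence; normalized to DMSO and 100 μM Compound B controls, 4-parameter fit to pIC50.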
Regarding `CC[C@H]1COCCN1c1cc(C2(S(C)(=O)=O)CCOCC2)cc(-c2ccc3[nH]c(CO)cc3n2)n1` [Example 33, (5-{6-[(3S)-3-ethylmorpholin-4-yl]-4-(4-methanesulfonyloxan-4-yl)pyridin-2-yl}-1H-pyrrolo[3,2-b]pyridin-2-yl)methanol], the IC50 is 2.51 to 31.6 nM and 2.51 to 316 nM.
`CC[C@H]1COCCN1c1cc(CS(C)(=O)=O)cc(-c2ccc3[nH]c(CO)cc3n2)n1` [Example 34, (5-{6-[(3S)-3-ethylmorpholin-4-yl]-4-(methanesulfonylmethyl)pyridin-2-yl}-1H-pyrrolo[3,2-b]pyridin-2-yl)methanol]: the IC50 was 2.51 to 31.6 nM and 2.51 to 316 nM.
`CC[C@H]1COCCN1c1cc(CS(=O)(=O)N(C)C)cc(-c2ccc3[nH]c(CO)cc3n2)n1` [Example 35, 1-{2-[(3S)-3-ethylmorpholin-4-yl]-6-[2-(hydroxymethyl)-1H-pyrrolo[3,2-b]pyridin-5-yl]pyridin-4-yl}-N,N-dimethylmethanesulfonamide]: the IC50 is 2.51 to 31.6 nM and 2.51 to 316 nM.
Turning to `CNCc1cc2nc(-c3cc(C4(S(C)(=O)=O)CCOCC4)cc(N4C5CCC4COC5)n3)ccc2[nH]1` [Example 40, ({5-[4-(4-methanesulfonyloxan-4-yl)-6-{3-oxa-8-azabicyclo[3.2.1]octan-8-yl}pyridin-2-yl]-1H-pyrrolo[3,2-b]pyridin-2-yl}methyl)(methyl)amine], the IC50 is 2.51 to 316 nM.
